For five molecules, Activity and IC50 results are on record in ChEMBL document CHEMBL3045643, “Synthesis, crystal structure, and anticancer properties of cyclic monocarbonyl analogs of curcumin” (Med Chem Res, 2011).

Active and inactive are the calls of the source. The rule behind the calls is not given here.

Data set [1] deals with ACHN. Description: Cytotoxicity against Homo sapiens (human) ACHN cells at 0.01 to 30 uM by CCK8-based colorimetric analysis. The data set is classed as functional, cell-based.
The subject of data set [2] is Calu-1. Briefly: Cytotoxicity against Homo sapiens (human) Calu1 cells at 0.01 to 30 uM by CCK8-based colorimetric analysis. The data set is classed as functional, cell-based.
Data set [3] relates to HCT-116. Briefly: Cytotoxicity against Homo sapiens (human) HCT116 cells at 0.01 to 30 uM by CCK8-based colorimetric analysis. In kind it is functional, cell-based.
Data set [4] in a line: Cytotoxicity against Homo sapiens (human) […] cells at 0.01 to 30 uM by CCK8-based colorimetric analysis. The data set is classed as cell-based. Particulars: wi-38, 30 µM.
The subject of another data set is NCI-H460. Briefly: Cytotoxicity against Homo sapiens (human) H460 cells at 0.01 to 30 uM by CCK8-based colorimetric analysis. The data set is classed as functional, cell-based.
Data set [5] deals with PANC-1. Briefly: Cytotoxicity against Homo sapiens (human) PANC1 cells at 0.01 to 30 uM by CCK8-based colorimetric analysis. In kind it is functional, cell-based.
Data set [6] in a line: Cytotoxicity against Homo sapiens (human) H460 cells by CCK8-based colorimetric analysis. The following applies: NCI-H460. The data set is classed as functional, cell-based.
The test system of data set [7] is PANC-1. Briefly: Cytotoxicity against Homo sapiens (human) PANC1 cells by CCK8-based colorimetric analysis. In kind it is functional, cell-based.
Data set [8] concerns ACHN. Briefly: Cytotoxicity against Homo sapiens (human) ACHN cells by CCK8-based colorimetric analysis. In kind it is functional, cell-based.
Data set [9] has as its system Calu-1. Briefly: Cytotoxicity against Homo sapiens (human) Calu1 cells by CCK8-based colorimetric analysis. In kind it is functional, cell-based.
For data set [10], the system named is HCT-116. Description: Cytotoxicity against Homo sapiens (human) HCT116 cells by CCK8-based colorimetric analysis. The data set is classed as functional, cell-based.

Regarding `COc1ccc(/C=C2\CN(Cc3ccccc3)C/C(=C\c3ccc(OC)cc3)C2=O)cc1`, the result in the data set with ACHN [1], with Calu-1 [2], in the data set with HCT-116 [3], with NCI-H460 and with PANC-1 [5] was Active. In addition, in data set [4], the Activity result is “Non-toxic”.
For `CCOc1ccc(/C=C2\CN(Cc3ccccc3)C/C(=C\c3ccc(OCC)cc3)C2=O)cc1`, the IC50 was determined as 5.5 µM in [6]; 7.2 µM with PANC-1 [7]; 6.9 µM in the data set with ACHN [8]; 8.1 µM in the data set with Calu-1 [9]; 8.3 µM with HCT-116 [10]. The Activity entry in [4] is recorded as “Non-toxic”.
Regarding `O=C1/C(=C/c2ccccc2)CN(Cc2ccccc2)C/C1=C\c1ccccc1`, the outcome with ACHN [1], with Calu-1 [2], with HCT-116 [3], in the data set with NCI-H460 and with PANC-1 [5] was Active. The Activity entry in [4] is listed as “Non-toxic”.
With `O=C1/C(=C/c2cccc(O)c2)CN(Cc2ccccc2)C/C1=C\c1cccc(O)c1`, the outcome in the data set with ACHN [1], in the data set on Calu-1 [2], in the data set on HCT-116 [3], with NCI-H460 and with PANC-1 [5] was Active. The Activity result in [4] is recorded as “Non-toxic”.
Regarding `COc1ccccc1/C=C1\C(=O)/C(=C\c2ccccc2OC)c2ccccc21`, the outcome in the data set with ACHN [1], with Calu-1 [2], with HCT-116 [3], in the data set on NCI-H460 and with PANC-1 [5] was Active. Further, the Activity entry in data set [4] is on record as “Non-toxic”.

The term IC50 denotes the concentration that inhibits the measured activity by half.
